This is an account of results in patent US20210355107A1, “MULTI-SUBSTITUTED PYRIDONE DERIVATIVES AND MEDICAL USE THEREOF” (Beijing Yuezhikangtai Biomedicines Co., Ltd., priority 2018, published 2021).

The test addresses T1, tyrosine kinase Tyro3 (Homo sapiens, UniProt Q06418).
T1 construct: purchased Carna 08-109
T1 sequence (Q06418 453-890 limits assumed): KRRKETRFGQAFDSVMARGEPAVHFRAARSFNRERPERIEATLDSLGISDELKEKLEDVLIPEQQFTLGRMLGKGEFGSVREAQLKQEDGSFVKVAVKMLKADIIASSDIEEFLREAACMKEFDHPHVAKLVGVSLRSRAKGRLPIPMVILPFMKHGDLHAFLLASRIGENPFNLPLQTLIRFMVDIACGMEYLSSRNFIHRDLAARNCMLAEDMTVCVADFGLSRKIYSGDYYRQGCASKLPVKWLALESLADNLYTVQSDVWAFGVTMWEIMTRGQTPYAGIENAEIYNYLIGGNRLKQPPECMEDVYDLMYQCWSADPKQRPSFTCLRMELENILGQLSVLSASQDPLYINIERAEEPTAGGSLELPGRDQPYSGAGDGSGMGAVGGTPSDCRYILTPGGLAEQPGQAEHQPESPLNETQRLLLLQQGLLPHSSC
Nature of the test: HTRF assay, inhibitory activity against tyrosine kinase Tyro3. It is filed as biochemical. The note with it: ATP at Km (50 μM), two duplicate wells. Here is the method:
Test Example 2: Evaluation of Inhibitory Activity (IC50) of Compounds disclosed herein against Tyrosine Kinases Mer and Tyro3
In this test, HTRF method was used to test the inhibitory activity of compounds when ATP concentrations correspond to the Km of the kinases. The control substance was RXDX-106. The concentration of test compound was 3-fold diluted from an initial concentration of 10 μM, and two duplicate wells were set.
Kinase Mer (Carna, Cat. No. 08-108, Lot. No. 14CBS-0421H); Tyro3 (Carna, Cat. No. 08-109, Lot. No. 08CBS-1186H); HTRF kinase-TK kit (Cisbio, Cat. No. 62TK0PEC), the kit comprising: biotin-TK substrate lyophilized powder (Cisbio, Cat. No. 61TK0BLC, Lot. No. 07A), streptavidin-XL665 (Cisbio, Cat. No. 610SAXLG, Lot. No. 126A), TK antibody-cryptate (Cisbio, Cat. No. 610SAXLG, Lot. No. 04A), and detection buffer (including EDTA) (Cisbio, Cat. No. 62TK0PEC, Lot. No. 12A); ATP (Sigma, Cat. No. A7699-5G, CAS No. 34369-07-8, Lot. No. SLBQ6014V); DMSO (Sigma, Cat. No. D5879-1L, Lot. No. SHBH9944); HEPES (Sigma, Cat. No. V900477-500G, CAS No. 7365-45-9, Lot. No. WXBC4716V); MgCl2 (Sigma, Cat. No. 208337-1KG, Lot. No. MKBX9508V); EGTA (Sigma, Cat. No. E3889-100g, CAS 67-42-5, […], Lot. No. SLBG8546V); NP-40 (Beijing Dingguo, Cat. No. DH218, Lot. No. 36R00160); DTT (Sigma, Cat. No. D0632-25g, CAS No. 3483-12-3, Lot. No. SLBF3964V); compound plate (Labcyte, Cat. No. LP0200, Lot. No. 0006386836); assay plate (Greiner, Cat. No. 784075, Lot. No. E16123HM); control substance RXDX-106 (prepared according to the method disclosed in patent WO2013074633).
1) Preparation of a buffer: 50 mM HEPES, 10 mM MgCl2, 1 mM EGTA, 0.01% NP-40, 2 mM DTT.
2) Preparation of control substance and test samples: RXDX-106 and the compounds disclosed herein were each dissolved in DMSO to 10 mM and then diluted to 1 mM or an appropriate concentration with DMSO, and then serial double dilution was performed using BRAVO (Agilent). 100 nL of each was transferred from a compound plate (Labcyte-LP0200) to an assay plate (Greiner-784075) using ECHO 555 (Labcyte). The final concentration of DMSO was 1%.
3) Mer and Tyro3 were each diluted to 0.5 nM and 1.2 nM with the detection buffer (Cisbio, Cat. No. 62TK0PEC, Lot. No. 12A). 5 μL of each was added to a 384-well plate and incubated with the compounds disclosed herein for 30 min at 22-25° C. Final concentrations of Mer and Tyro3 were 0.25 nM and 0.6 nM, respectively.
4) Biotin-TK substrate and ATP were each diluted to a concentration twice the final concentration with 1× kinase buffer made up of HEPES, NaN3, BSA and orthovanadate. 5 μL of the mixture of substrate and ATP was added to the 384-well plate to initiate the reaction, which lasts for 1 h at 22-25° C.
5) Streptavidin-XL665 and TK antibody-cryptate were diluted to 250 nM and 0.5 nM, respectively, with the detection buffer. […] of each of the two solutions was added to the 384-well plate to initiate the reaction, which lasts for 1 h at 22-25° C. The final concentrations of streptavidin-XL665 and TK antibody-cryptate were 125 nM and 0.25 nM, respectively.
6) The fluorescence intensities at 665 nm and 615 nm were read with an Envision Reader (PerkinElmer) .
7) IC50 values of the compounds were fitted with XL-fit software.
The molecule `CC(C)n1cc(C(=O)Nc2ccc(-c3cc(-c4cnn(C5CCNCC5)c4)cnc3N)c(F)c2)c(=O)c(-c2ccc(F)cc2)c1C#N` [Example 2, N-(4-(2-amino-5-(1-(piperidin-4-yl)-1H-pyrazol-4-yl)pyridin-3-yl)-3-fluorophenyl)-6-cyano-5-(4-fluorophenyl)-1-isopropyl-4-oxo-1,4-dihydropyridine-3-carboxamide] returned an IC50 of 1.18 nM.

As for `CCn1cc(-c2cnc(N)c(-c3ccc(NC(=O)c4cn(C(C)C)c(C#N)c(-c5ccc(F)cc5)c4=O)cc3F)c2)cn1` [Example 3, N-(4-(2-amino-5-(1-ethyl-1H-pyrazol-4-yl)pyridin-3-yl)-3-fluoro-phenyl)-6-cyano-5-(4-fluorophenyl)-1-isopropyl-4-oxo-1,4-dihydropyridine-3-carboxamide], the IC50 stood at 2.27 nM.

Take `CC(C)n1cc(C(=O)Nc2ccc(-c3cc(-c4cnn(C)c4)cnc3N)c(F)c2)c(=O)c(-c2ccc(F)cc2)c1C#N` [Example 4, N-(4-(2-amino-5-(1-methyl-1H-pyrazol-4-yl)pyridin-3-yl)-3-fluorophenyl)-6-cyano-5-(4-fluorophenyl)-1-isopropyl-4-oxo-1,4-dihydropyridine-3-carboxamide]: half-maximal inhibition (IC50) was put at 2.67 nM.

`CC(C)n1cc(C(=O)Nc2cc(F)c(-c3cc(-c4cnn(C)c4)cnc3N)cc2F)c(=O)c(-c2ccc(F)cc2)c1C#N` [Example 6, N-(4-(2-amino-5-(1-methyl-1H-pyrazol-4-yl)pyridin-3-yl)-2,5-difluorophenyl)-6-cyano-5-(4-fluorophenyl)-1-isopropyl-4-oxo-1,4-dihydropyridine-3-carboxamide]: half-maximal inhibition (IC50) was put at 1.8 nM.

In the case of `CC(C)n1cc(C(=O)Nc2ccc(-c3cc(-c4cnn(C5CCN(C)CC5)c4)cnc3N)c(F)c2)c(=O)c(-c2ccc(F)cc2)c1C#N` [Example 7, N-(4-(2-amino-5-(1-(1-methylpiperidin-4-yl)-1H-pyrazol-4-yl)-pyridin-3-yl)-3-fluorophenyl)-6-cyano-5-(4-fluorophenyl)-1-isopropyl-4-oxo-1,4-dihydro-pyridine-3-carboxamide], half-maximal inhibition (IC50) required 1.77 nM.

In the case of `CCn1cc(-c2cnc(N)c(-c3ccc(NC(=O)c4cn(C5CC5)c(C#N)c(-c5ccc(F)cc5)c4=O)cc3F)c2)cn1` [Example 10, N-(4-(2-amino-5-(1-ethyl-1H-pyrazol-4-yl)pyridin-3-yl)-3-fluorophenyl)-6-cyano-5-(4-fluorophenyl)-1-cyclopropyl-4-oxo-1,4-dihydropyridine-3-carboxamide], the midpoint of inhibition, the IC50, lay at 30.2 nM.

The molecule `COc1cc2nccc(Oc3ccc(NC(=O)c4cn(C(C)C)c(C#N)c(-c5ccc(F)cc5)c4=O)cc3F)c2cc1OC` [Example 24, 6-cyano-N-(4-((6,7-dimethoxyquinolin-4-yl)oxy)-3-fluoro-phenyl)-5-(4-fluorophenyl)-1-isopropyl-4-oxo-1,4-dihydropyridine-3-carboxamide] showed an IC50 of 15.5 nM.

The molecule `CCn1cc(-c2cnc(N)c(-c3cc(F)c(NC(=O)c4cn(C(C)C)c(C#N)c(-c5ccc(F)cc5)c4=O)cc3F)c2)cn1` [Example 33, N-(4-(2-amino-5-(1-ethyl-1H-pyrazol-4-yl)pyridin-3-yl)-2,5-difluorophenyl)-6-cyano-5-(4-fluorophenyl)-1-isopropyl-4-oxo-1,4-dihydropyridine-3-carboxamide] had an IC50 of 0.5 nM.

Consider `[2H]C([2H])([2H])n1cc(-c2cnc(N)c(-c3cc(F)c(NC(=O)c4cn(C(C)C)c(C#N)c(-c5ccc(F)cc5)c4=O)cc3F)c2)cn1` [Example 34, N-(4-(2-amino-5-(1-methyl-d3-1H-pyrazol-4-yl)pyridin-3-yl)-2,5-difluorophenyl)-6-cyano-5-(4-fluorophenyl)-1-isopropyl-4-oxo-1,4-dihydropyridine-3-carboxamide], for which the IC50 worked out at 1.16 nM.
